Test results taken from ChEMBL document CHEMBL1145498, “A systematic interaction map of validated kinase inhibitors with Ser/Thr kinases” (Proc Natl Acad Sci U S A, 2007).

Tests used:
[1] = biological target: TRAF2 and NCK-interacting protein kinase (Homo sapiens) (UniProt Q9UKE5)
[2] = biological target: Serine/threonine-protein kinase PAK 4 (Homo sapiens) (UniProt O96013)
[3] = biological target: T1, Serine/threonine-protein kinase VRK1 (Homo sapiens) (UniProt Q99986)
T1 sequence (whole entry): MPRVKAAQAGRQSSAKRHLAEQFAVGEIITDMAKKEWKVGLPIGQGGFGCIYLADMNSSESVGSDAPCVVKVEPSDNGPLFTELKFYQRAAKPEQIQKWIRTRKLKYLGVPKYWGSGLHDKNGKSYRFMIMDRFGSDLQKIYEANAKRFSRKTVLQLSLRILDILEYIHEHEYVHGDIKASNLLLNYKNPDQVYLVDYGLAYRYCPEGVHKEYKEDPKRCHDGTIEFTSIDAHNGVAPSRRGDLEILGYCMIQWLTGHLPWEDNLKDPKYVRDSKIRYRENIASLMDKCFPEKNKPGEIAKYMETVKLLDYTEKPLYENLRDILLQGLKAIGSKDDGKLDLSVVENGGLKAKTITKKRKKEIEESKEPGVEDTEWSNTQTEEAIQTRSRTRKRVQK

[4] = biological target: Serine/threonine-protein kinase PAK 6 (Homo sapiens) (UniProt Q9NQU5)
[5] = biological target: Casein kinase I isoform gamma-2 (Homo sapiens) (UniProt P78368)
[6] = biological target: T2, Serine/threonine-protein kinase PLK4 (Homo sapiens) (UniProt O00444)
T2 sequence (whole entry): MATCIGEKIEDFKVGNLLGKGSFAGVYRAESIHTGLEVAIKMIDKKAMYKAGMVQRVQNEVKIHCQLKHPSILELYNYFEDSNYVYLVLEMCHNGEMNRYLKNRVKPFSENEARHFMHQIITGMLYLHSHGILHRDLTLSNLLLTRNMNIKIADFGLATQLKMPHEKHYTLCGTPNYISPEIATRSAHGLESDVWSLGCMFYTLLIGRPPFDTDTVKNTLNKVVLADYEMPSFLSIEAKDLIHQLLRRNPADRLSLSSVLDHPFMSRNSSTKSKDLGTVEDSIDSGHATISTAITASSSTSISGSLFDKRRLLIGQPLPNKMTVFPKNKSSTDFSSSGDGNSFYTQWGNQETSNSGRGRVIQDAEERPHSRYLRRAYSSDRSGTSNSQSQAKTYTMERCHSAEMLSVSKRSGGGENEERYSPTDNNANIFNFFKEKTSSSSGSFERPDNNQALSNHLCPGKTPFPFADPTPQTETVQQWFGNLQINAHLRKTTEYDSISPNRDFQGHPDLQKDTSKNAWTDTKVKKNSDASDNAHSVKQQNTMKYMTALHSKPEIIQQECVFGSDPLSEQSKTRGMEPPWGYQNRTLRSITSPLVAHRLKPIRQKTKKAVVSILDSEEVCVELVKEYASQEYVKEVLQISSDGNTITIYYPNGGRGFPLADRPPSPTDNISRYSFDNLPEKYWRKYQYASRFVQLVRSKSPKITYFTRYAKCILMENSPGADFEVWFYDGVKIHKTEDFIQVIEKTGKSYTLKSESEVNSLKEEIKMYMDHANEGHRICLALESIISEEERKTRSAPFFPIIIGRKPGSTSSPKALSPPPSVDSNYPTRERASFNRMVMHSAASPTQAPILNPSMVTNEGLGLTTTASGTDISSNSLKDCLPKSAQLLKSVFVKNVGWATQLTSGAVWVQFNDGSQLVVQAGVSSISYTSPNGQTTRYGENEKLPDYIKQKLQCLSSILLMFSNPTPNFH

[7] = biological target: Calcium/calmodulin-dependent protein kinase type II subunit beta (Homo sapiens) (UniProt Q13554)
[8] = biological target: Casein kinase I isoform gamma-3 (Homo sapiens) (UniProt Q9Y6M4)
[9] = biological target: Serine/threonine-protein kinase Nek6 (Homo sapiens) (UniProt Q9HC98)
[10] = biological target: Calcium/calmodulin-dependent protein kinase type II subunit delta (Homo sapiens) (UniProt Q13557)
[11] = biological target: T3, 3-phosphoinositide-dependent protein kinase 1 (Homo sapiens) (UniProt O15530)
T3 sequence (whole entry): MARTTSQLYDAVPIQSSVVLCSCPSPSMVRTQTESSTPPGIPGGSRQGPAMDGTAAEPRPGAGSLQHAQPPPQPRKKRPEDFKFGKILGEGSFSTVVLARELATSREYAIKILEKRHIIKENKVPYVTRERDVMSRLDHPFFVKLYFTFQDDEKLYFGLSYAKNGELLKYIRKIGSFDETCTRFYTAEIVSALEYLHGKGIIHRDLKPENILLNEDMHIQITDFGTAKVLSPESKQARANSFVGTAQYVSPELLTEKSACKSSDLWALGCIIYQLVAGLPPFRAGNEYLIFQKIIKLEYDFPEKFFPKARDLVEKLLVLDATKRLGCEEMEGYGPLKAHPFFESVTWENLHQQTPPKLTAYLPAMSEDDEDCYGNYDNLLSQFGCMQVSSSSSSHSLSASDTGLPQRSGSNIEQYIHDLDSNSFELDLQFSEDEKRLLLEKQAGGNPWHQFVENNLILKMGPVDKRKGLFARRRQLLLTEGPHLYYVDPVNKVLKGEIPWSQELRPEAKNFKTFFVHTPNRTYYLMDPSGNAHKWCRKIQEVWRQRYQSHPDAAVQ

[12] = biological target: Cyclin-dependent kinase 2 (Homo sapiens, UniProt P24941)
[13] = biological target: T4, Calcium/calmodulin-dependent protein kinase type IV (Homo sapiens) (UniProt Q16566)
T4 sequence (whole entry): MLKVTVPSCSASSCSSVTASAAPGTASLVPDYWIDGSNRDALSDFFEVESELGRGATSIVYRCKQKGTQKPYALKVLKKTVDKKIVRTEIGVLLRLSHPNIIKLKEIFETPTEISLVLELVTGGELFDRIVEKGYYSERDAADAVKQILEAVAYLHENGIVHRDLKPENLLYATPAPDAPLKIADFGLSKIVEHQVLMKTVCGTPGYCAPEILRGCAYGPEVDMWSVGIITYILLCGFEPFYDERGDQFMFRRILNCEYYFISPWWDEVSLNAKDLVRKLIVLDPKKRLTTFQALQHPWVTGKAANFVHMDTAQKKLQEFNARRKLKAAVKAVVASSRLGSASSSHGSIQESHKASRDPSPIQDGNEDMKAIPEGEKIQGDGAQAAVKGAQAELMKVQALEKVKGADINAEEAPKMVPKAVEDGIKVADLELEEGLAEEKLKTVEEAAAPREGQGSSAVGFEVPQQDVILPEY

Sequence of Serine/threonine-protein kinase Nek6 (Homo sapiens) (Q9HC98 whole entry): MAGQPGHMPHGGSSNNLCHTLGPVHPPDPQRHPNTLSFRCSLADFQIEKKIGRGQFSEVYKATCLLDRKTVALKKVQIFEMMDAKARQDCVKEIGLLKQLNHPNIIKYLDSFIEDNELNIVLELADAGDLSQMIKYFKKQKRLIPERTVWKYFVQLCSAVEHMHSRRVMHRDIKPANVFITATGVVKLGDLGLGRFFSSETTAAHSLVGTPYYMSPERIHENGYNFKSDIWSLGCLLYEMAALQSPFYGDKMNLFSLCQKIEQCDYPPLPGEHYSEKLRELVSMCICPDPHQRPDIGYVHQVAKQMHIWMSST
Sequence of Casein kinase I isoform gamma-3 (Homo sapiens) (Q9Y6M4 whole entry, looked up, canonical isoform): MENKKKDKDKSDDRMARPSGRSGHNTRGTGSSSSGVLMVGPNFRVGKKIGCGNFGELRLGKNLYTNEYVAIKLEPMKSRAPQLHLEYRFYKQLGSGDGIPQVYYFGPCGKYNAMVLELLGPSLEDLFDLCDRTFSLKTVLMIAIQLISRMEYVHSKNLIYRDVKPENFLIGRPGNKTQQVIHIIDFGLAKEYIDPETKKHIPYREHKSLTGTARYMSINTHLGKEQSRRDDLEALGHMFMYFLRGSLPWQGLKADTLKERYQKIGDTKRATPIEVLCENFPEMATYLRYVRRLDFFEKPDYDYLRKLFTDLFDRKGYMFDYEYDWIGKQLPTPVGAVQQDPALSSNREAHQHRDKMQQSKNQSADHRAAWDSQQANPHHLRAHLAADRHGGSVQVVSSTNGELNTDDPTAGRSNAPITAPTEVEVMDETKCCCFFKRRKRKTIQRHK
Sequence of Calcium/calmodulin-dependent protein kinase type II subunit delta (Homo sapiens) (Q13557 whole entry): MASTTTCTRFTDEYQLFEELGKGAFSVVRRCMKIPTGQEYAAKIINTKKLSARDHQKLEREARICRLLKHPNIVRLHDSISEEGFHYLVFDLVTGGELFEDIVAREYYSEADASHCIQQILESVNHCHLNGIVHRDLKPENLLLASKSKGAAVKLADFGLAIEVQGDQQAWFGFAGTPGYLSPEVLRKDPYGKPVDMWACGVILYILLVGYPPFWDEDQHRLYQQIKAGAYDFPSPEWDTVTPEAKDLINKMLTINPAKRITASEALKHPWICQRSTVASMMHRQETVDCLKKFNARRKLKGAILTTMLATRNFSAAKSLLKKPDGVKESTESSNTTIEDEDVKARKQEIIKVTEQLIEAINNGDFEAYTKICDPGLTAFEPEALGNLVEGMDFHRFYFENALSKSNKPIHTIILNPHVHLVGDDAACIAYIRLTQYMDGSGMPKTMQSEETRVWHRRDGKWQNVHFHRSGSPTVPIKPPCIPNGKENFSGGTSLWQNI
Sequence of Serine/threonine-protein kinase PAK 6 (Homo sapiens) (Q9NQU5 whole entry, looked up, canonical isoform): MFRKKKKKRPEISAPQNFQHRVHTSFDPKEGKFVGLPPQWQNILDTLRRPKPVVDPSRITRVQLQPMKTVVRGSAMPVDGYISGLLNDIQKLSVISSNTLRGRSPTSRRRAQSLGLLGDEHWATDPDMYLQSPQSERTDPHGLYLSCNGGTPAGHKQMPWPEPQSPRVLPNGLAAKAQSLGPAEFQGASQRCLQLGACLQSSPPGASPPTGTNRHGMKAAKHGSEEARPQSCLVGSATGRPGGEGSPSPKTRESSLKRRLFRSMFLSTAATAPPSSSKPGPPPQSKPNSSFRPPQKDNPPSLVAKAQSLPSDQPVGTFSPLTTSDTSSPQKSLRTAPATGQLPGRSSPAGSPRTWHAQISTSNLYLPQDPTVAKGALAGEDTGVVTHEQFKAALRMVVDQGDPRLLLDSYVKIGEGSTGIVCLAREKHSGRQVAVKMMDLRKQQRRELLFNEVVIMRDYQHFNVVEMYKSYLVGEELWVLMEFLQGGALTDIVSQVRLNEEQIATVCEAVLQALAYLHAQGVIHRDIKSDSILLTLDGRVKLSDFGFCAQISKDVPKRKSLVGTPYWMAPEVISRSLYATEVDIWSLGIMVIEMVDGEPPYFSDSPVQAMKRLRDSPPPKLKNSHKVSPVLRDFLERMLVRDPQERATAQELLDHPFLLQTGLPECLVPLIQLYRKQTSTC
Sequence of TRAF2 and NCK-interacting protein kinase (Homo sapiens) (Q9UKE5 whole entry, looked up): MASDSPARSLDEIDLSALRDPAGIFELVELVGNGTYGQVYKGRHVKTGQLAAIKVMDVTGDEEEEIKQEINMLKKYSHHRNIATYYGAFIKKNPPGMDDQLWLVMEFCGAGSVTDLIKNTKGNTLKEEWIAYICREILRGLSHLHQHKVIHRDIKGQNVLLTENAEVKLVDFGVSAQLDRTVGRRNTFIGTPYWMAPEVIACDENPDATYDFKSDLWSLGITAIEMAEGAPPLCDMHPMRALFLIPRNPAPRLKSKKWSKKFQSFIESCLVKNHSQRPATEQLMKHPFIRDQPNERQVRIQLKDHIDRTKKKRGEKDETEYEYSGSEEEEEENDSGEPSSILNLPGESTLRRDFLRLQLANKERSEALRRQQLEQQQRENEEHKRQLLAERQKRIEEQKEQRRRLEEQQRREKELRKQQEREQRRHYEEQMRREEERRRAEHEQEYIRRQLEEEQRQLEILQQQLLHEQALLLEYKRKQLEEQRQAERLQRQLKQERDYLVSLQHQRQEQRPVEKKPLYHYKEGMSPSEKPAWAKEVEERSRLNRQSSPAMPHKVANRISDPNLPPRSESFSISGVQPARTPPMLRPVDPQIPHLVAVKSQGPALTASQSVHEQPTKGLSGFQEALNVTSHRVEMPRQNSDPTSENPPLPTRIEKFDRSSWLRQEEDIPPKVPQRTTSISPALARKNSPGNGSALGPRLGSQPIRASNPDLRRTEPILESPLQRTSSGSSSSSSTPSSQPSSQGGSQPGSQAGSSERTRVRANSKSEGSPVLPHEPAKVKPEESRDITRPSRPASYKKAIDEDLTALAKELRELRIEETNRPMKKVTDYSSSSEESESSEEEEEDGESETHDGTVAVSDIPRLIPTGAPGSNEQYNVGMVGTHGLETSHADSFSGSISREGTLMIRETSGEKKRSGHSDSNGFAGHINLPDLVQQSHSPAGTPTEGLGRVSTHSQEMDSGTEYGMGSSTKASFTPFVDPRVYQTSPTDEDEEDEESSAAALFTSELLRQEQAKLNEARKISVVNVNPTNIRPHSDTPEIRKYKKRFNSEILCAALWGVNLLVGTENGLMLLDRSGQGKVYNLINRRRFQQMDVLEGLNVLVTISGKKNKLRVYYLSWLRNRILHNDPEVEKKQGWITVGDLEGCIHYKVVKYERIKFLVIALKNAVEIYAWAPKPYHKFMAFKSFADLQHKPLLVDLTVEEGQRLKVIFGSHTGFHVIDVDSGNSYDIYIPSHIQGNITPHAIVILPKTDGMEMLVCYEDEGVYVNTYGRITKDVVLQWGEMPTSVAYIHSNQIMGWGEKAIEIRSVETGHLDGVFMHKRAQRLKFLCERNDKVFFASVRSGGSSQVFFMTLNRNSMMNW
Sequence of Casein kinase I isoform gamma-2 (Homo sapiens) (P78368 whole entry, looked up, canonical isoform): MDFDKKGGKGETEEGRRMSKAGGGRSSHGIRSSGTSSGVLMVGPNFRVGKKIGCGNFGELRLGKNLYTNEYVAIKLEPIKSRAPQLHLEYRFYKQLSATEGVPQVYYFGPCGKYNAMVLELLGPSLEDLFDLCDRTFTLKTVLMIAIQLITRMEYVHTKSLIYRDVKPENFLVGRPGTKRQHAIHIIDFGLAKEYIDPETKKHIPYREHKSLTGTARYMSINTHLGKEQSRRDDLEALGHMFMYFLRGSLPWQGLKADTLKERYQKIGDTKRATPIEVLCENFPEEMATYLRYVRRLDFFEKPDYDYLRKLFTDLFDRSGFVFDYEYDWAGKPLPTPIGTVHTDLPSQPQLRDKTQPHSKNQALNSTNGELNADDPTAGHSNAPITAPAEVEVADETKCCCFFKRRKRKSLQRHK
Sequence of Calcium/calmodulin-dependent protein kinase type II subunit beta (Homo sapiens) (Q13554 whole entry, canonical isoform): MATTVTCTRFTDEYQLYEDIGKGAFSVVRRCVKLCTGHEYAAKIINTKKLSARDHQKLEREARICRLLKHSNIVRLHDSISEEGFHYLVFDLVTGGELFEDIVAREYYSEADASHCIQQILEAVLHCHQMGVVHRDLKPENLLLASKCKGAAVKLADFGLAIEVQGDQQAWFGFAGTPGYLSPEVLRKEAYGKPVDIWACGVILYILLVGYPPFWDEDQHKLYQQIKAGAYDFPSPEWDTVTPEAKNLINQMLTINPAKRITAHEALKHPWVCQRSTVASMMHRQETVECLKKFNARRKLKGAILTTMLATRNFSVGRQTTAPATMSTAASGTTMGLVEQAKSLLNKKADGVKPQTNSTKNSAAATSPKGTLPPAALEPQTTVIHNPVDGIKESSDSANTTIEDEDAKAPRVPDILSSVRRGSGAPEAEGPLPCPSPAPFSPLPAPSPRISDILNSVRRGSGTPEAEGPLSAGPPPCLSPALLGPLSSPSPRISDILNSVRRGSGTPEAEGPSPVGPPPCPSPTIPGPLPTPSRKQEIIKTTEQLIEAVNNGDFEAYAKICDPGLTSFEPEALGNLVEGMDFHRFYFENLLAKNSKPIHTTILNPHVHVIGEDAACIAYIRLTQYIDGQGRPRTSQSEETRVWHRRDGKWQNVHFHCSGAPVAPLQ
Sequence of Serine/threonine-protein kinase PAK 4 (Homo sapiens) (O96013 whole entry, looked up): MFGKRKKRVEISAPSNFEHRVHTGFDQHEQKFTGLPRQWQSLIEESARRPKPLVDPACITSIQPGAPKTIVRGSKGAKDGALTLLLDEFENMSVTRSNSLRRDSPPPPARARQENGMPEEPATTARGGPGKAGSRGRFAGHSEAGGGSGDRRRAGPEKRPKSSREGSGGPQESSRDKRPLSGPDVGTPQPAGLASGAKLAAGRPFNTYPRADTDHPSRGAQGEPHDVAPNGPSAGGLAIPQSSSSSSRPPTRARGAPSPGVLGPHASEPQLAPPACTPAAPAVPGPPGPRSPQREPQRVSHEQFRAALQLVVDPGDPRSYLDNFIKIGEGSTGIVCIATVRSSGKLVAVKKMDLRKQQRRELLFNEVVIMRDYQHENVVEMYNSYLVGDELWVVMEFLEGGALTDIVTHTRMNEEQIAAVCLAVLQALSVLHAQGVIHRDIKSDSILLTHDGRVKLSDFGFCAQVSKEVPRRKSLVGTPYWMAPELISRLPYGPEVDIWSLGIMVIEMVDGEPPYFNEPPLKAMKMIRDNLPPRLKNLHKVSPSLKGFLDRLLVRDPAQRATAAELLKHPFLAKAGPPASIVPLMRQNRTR

Row | Structure (SMILES) | ΔTm [1] | ΔTm [2] | ΔTm [3] | ΔTm [4] | ΔTm [5] | ΔTm [6] | ΔTm [7] | ΔTm [8] | ΔTm [9] | ΔTm [10] | ΔTm [11] | ΔTm [12] | ΔTm [13]
1 | O=C1Nc2ccc(I)cc2/C1=C1/Nc2ccccc2/C1=N\O | 5.2 °C | 2.3 °C | 0.1 °C | 0.9 °C | 1.9 °C | 8.7 °C | 1.2 °C | 1.8 °C | -2 °C | 3.6 °C | -0.3 °C | 6.8 °C | 2.6 °C
2 | O=C1Nc2ccc(I)cc2/C1=C\c1cc(Br)c(O)c(Br)c1 | 3.9 °C | -0.8 °C | 1.7 °C | -0.3 °C | 1.1 °C | 1.3 °C | -0.1 °C | 0 °C | 0 °C | 0.9 °C | -1 °C | 1.2 °C | 0.2 °C
3 | N#C/C(=C\c1ccc(O)c(O)c1)C(=O)Nc1ccccc1 | 1 °C | -0.5 °C | 0.2 °C | 0 °C | 1.2 °C | 1.3 °C | 0.2 °C | 1.2 °C | 0.9 °C | 1 °C | -0.3 °C | 1.1 °C | 0.6 °C

The next lines start with the values.

Row | ΔTm [1] | ΔTm [2] | ΔTm [3] | ΔTm [4] | ΔTm [5] | ΔTm [6] | ΔTm [7] | ΔTm [8] | ΔTm [9] | ΔTm [10] | ΔTm [11] | ΔTm [12] | ΔTm [13] | Structure (SMILES)
4 | 3.6 °C | 4.7 °C | 0.5 °C | 5.3 °C | 3.8 °C | 1.2 °C | 0.4 °C | 6.7 °C | -0.2 °C | 0.2 °C | -0.8 °C | 4.5 °C | 2.2 °C | CC(C)N(CCO)c1nc(Nc2cccc(Cl)c2)c2ncn(C(C)C)c2n1
5 | 0.5 °C | 0.6 °C | -0.3 °C | 0.3 °C | 0.4 °C | 1.5 °C | -0.4 °C | 0.4 °C | -0.2 °C | -1.6 °C | -0.2 °C | 1.4 °C | 0.4 °C | Nc1cc2ncnc(Nc3cccc(Br)c3)c2cc1N
